IC50 data for 26 molecules are collected here from patent US9850225B2, “Compounds useful as immunomodulators” (BRISTOL-MYERS SQUIBB COMPANY, priority 2014, dated 2017).

The assay addresses PD-1/PD-L1 interaction (PD-1-Ig / PD-L1-His) (Homo sapiens (Human), UniProt Q9NZQ7). As to the kind of experiment: PD-1/PD-L1 Homogenous Time-Resolved Fluorescence (HTRF) binding assay. The settings on record: PD-1/PD-L1 HTRF binding assay, read-out: Range or IC50. The source says: The ability of the compounds of formula (I) to bind to PD-L1 was investigated using a PD-1/PD-L1 Homogenous Time-Resolved Fluorescence (HTRF) binding assay.
Homogenous Time-Resolved Fluorescence (HTRF) Binding Assay.
The interaction of PD-1 and PD-L1 can be assessed using soluble, purified preparations of the extracellular domains of the two proteins. The PD-1 and PD-L1 protein extracellular domains were expressed as fusion proteins with detection tags, for PD-1, the tag was the Fc portion of Immunoglobulin (PD-1-Ig) and for PD-L1 it was the 6 histidine motif (PD-L1-His). All binding studies were performed in an HTRF assay buffer consisting of dPBS supplemented with 0.1% […] bovine serum albumin and 0.05% (v/v) Tween-20. For the h/PD-L1-His binding assay, inhibitors were pre-incubated with PD-L1-His (10 nM final) for 15 m in 4 μl of assay buffer, followed by addition of PD-1-Ig (20 nM final) in 1 μl of assay buffer and further incubation for 15 m. HTRF detection was achieved using europium crypate-labeled anti-Ig (1 nM final) and allophycocyanin (APC) labeled anti-His (20 nM final). Antibodies were diluted in HTRF detection buffer and 5 μl was dispensed on top of the binding reaction. […] Additional binding assays were established between the human proteins PD-1-Ig/PD-L2-His (20 & 5 nM, respectively) and CD80-His/PD-L1-Ig (100 & 10 nM, respectively). […]
(Time-resolved FRET reads energy transfer from a long-lived donor to a nearby acceptor.)

Like-named read-outs stand apart in the source and are kept apart here.

Sequence of PD-1/PD-L1 interaction (PD-1-Ig / PD-L1-His) (Q9NZQ7 other isoform, or with tags, fused parts or gaps): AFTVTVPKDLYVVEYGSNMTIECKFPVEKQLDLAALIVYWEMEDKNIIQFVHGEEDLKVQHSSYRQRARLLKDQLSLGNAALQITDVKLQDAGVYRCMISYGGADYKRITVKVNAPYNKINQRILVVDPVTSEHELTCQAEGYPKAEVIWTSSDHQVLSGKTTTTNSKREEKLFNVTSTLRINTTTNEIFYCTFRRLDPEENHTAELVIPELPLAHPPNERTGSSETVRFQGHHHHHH

On to `Cc1c(COc2cc(OCc3cncc(C#N)c3)c(CN3CCCC[C@H]3C(=O)O)cc2Br)cccc1-c1ccc2c(c1)OCCO2` [Example 1319, (S)-1-(5-bromo-2-((5-cyanopyridin-3-yl)methoxy)-4-(3-(2,3-dihydrobenzo[b][1,4]dioxin-6-yl)-2-methylbenzyloxy)benzyl)piperidine-2-carboxylic acid], for which the IC50 (value given as range class) was 0.6 to 10 nM.
The same measure, in the same setting: then `CC(=O)NCCNCc1ccc(OCc2cccc(-c3ccccc3)c2C)cc1OCc1ccc(Br)cc1C#N` [Example 1097, N-(2-((2-((4-bromo-2-cyanobenzyl)oxy)-4-((2-methyl-[1,1′-biphenyl]-3-yl)methoxy)benzyl)amino)ethyl)acetamide], with 100 to 20000 nM; and `Cc1c(COc2ccc(CNC(C)(CO)C(=O)O)c(OCc3cccc(C#N)c3)c2)cccc1-c1ccc2c(c1)OCCO2` (centres unmarked) [Example 1124, 2-((2-((3-cyanobenzyl)oxy)-4-((3-(2,3-dihydrobenzo[b][1,4]dioxin-6-yl)-2-methylbenzyl)oxy)benzyl)amino)-3-hydroxy-2-methylpropanoic acid], with 0.6 to 10 nM.
Regarding `Cc1cc(CNC[C@@H](O)CC(=O)O)c(OCc2cncc(C#N)c2)cc1OCc1cccc(-c2ccc3c(c2)OCCO3)c1C` [Example 1283, (S)-4-(2-((5-cyanopyridin-3-yl)methoxy)-4-(3-(2,3-dihydrobenzo[b][1,4]dioxin-6-yl)-2-methylbenzyloxy)-5-methylbenzylamino)-3-hydroxybutanoic acid], the IC50 (value given as range class) lay within 0.6 to 10 nM.
With `Cc1c(COc2cc(OCc3cncc(C#N)c3)c(CN[C@H](CO)C(=O)O)cc2F)cccc1-c1ccc2c(c1)OCCO2` [Example 3000], the IC50 (value given as range class) lay in the range of 0.6 to 10 nM.
The same measure, in the same setting: then `COC(=O)CCCCOc1cc(OCc2cccc(-c3ccccc3)c2C)ccc1CNCCNC(C)=O` [Example 1032, methyl 5-(2-(((2-acetamidoethyl)amino)methyl)-5-((2-methyl-[1,1′-biphenyl]-3-yl)methoxy)phenoxy)pentanoate], with 100 to 20000 nM.
With `CC(=O)NCCNCc1ccc(OCc2cccc(-c3ccccc3)c2C)cc1OCc1cc(C#N)ccc1F` [Example 1095, N-(2-((2-((5-cyano-2-fluorobenzyl)oxy)-4-((2-methyl-[1,1′-biphenyl]-3-yl)methoxy)benzyl)amino)ethyl)acetamide], the IC50 (numeric value) stood at 81.2 nM.
In the case of `C[C@@](CO)(NCc1ccc(OCc2cccc(-c3ccc4c(c3)OCCO4)c2Cl)cc1OCc1cccc(C#N)c1)C(=O)O` [Example 1149, (S)-2-(4-(2-chloro-3-(2,3-dihydrobenzo[b][1,4]dioxin-6-yl)benzyloxy)-2-(3-cyanobenzyloxy)benzylamino)-3-hydroxy-2-methylpropanoic acid], the IC50 (value given as range class) is 0.6 to 10 nM.
Same read-out and setting: then `CC(=O)NCCNCc1ccc(OCc2cccc(-c3ccccc3)c2C)cc1OCCc1ccccc1` [Example 1033, N-(2-((4-((2-methyl-[1,1′-biphenyl]-3-yl)methoxy)-2-phenethoxybenzyl)amino)ethyl)acetamide], with 100 to 20000 nM; and `N#Cc1cccc(COc2cc(OCc3cccc(-c4ccc5c(c4)OCCO5)c3Cl)ccc2CN2CCCC[C@H]2C(=O)O)c1` [Example 1145, (S)-1-(4-(2-chloro-3-(2,3-dihydrobenzo[b][1,4]dioxin-6-yl)benzyloxy)-2-(3-cyanobenzyloxyl)benzyl)piperidine-2-carboxylic acid], with 10 to 100 nM; and `COc1cc(OCc2cccc(-c3ccc4c(c3)OCCO4)c2C)cc(OCc2cccc(C#N)c2)c1CN[C@H](CO)C(=O)O` [Example 1139, (R)-2-((2-((3-cyanobenzyl)oxy)-4-((3-(2,3-dihydrobenzo[b][1,4]dioxin-6-yl)-2-methylbenzyl)oxy)-6-methoxybenzyl)amino)-3-hydroxypropanoic acid], with 0.6 to 10 nM.
The same measure, in the same setting: the figure for `Cc1c(COc2cc(OCc3ccccc3)c(CN3CCCC[C@H]3C(=O)O)cc2Cl)cccc1-c1ccc2c(c1)OCCO2` [Example 3028, (S)-1-(2-(benzyloxy)-5-chloro-4-((3-(2,3-dihydrobenzo[b][1,4]dioxin-6-yl)-2-methylbenzyl)oxy)benzyl)piperidine-2-carboxylic acid] is 100 to 20000 nM.
For `Cc1c(COc2cc(OCc3cccc(C#N)c3)c(CN[C@H](CCO)C(=O)O)cc2Cl)cccc1-c1ccc2c(c1)OCCO2` [Example 1205, (R)-2-((5-chloro-2-((3-cyanobenzyl)oxy)-4-((3-(2,3-dihydrobenzo[b][1,4]dioxin-6-yl)-2-methylbenzyl)oxy)benzyl)amino)-4-hydroxybutanoic acid], the IC50 (numeric value) was 2.71 nM.
Turning to `Cc1c(COc2cc(OCc3cncc(C#N)c3)c(CN[C@](C)(CO)C(=O)O)cc2F)cccc1-c1ccc2c(c1)OCCO2` [Example 3001], the IC50 (value given as range class) fell in the range of 0.6 to 10 nM.
In the case of `Cc1c(COc2cc(OCc3cccc(S(C)(=O)=O)c3)c(C=O)cc2Cl)cccc1-c1ccc2c(c1)OCCO2` [Example 3020, 5-chloro-4-((3-(2,3-dihydrobenzo[b][1,4]dioxin-6-yl)-2-methylbenzyl)oxy)-2-((3-(methylsulfonyl)benzyl)oxy)benzaldehyde], the IC50 (value given as range class) is 100 to 20000 nM.
Still for that read-out and setting: then `Cc1c(COc2cc(OCc3cccc(C#N)c3)c(CN[C@@H](C(=O)O)c3ccc(O)cc3)cc2Cl)cccc1-c1ccc2c(c1)OCCO2` [Example 1161, (R)-2-((5-chloro-2-((3-cyanobenzyl)oxy)-4-((3-(2,3-dihydrobenzo[b][1,4]dioxin-6-yl)-2-methylbenzyl)oxy)benzyl)amino)-2-(4-hydroxyphenyl)acetic acid], with 10 to 100 nM.
The same measure, in the same setting: the figure for `COc1ccc(F)c(COc2cc(OCc3cccc(-c4ccccc4)c3C)ccc2CNCCNC(C)=O)c1F` [Example 1092, N-(2-((2-((2,6-difluoro-3-methoxybenzyl)oxy)-4-((2-methyl-[1,1′-biphenyl]-3-yl)methoxy)benzyl)amino)ethyl)acetamide] is 100 to 20000 nM.
In the case of `CC(=O)NCCNCc1ccc(OCc2cccc(-c3ccccc3)c2C)cc1OCc1cccc(OC(F)(F)F)c1` [Example 1082, N-(2-((4-((2-methyl-[1,1′-biphenyl]-3-yl)methoxy)-2-((3-(trifluoromethoxy)benzyl)oxy)benzyl)amino)ethyl)acetamide], the IC50 (numeric value) was 828 nM.
For `Cc1c(COc2cc(OCc3cccc(C#N)c3)c(CN[C@H](CC(=O)O)C(=O)O)cc2Cl)cccc1-c1ccc2c(c1)OCCO2` [Example 1175, (R)-2-((5-chloro-2-((3-cyanobenzyl)oxy)-4-((3-(2,3-dihydrobenzo[b][1,4]dioxin-6-yl)-2-methylbenzyl)oxy)benzyl)amino)succinic acid], where the note is “value given as range class”, the IC50 is 10 to 100 nM.
For `CC(=O)NCCNCc1ccc(OCc2cccc(-c3ccccc3)c2C)cc1OCc1ccccc1CO` [Example 1038, N-(2-((2-((2-(hydroxymethyl)benzyl)oxy)-4-((2-methyl-[1,1′-biphenyl]-3-yl)methoxy)benzyl)amino)ethyl)acetamide], the IC50 (value given as range class) was 100 to 20000 nM.
The same measure, in the same setting: then `Cc1c(COc2ccc(CN[C@H](C(=O)O)[C@H](C)O)c(OCc3cccc(C#N)c3)c2)cccc1-c1ccccc1` [Example 1012, (2S,3S)-2-((2-((3-cyanobenzyl)oxy)-4-((2-methyl-[1,1′-biphenyl]-3-yl)methoxy)benzyl)amino)-3-hydroxybutanoic acid], with 10 to 100 nM.
For `Cc1cc(CN[C@@](C)(CO)C(=O)O)c(OCCCCC#N)cc1OCc1cccc(-c2ccc3c(c2)OCCO3)c1C` [Example 1297, (S)-2-(2-(4-cyanobutoxy)-4-(3-(2,3-dihydrobenzo[b][1,4]dioxin-6-yl)-2-methylbenzyloxy)-5-methylbenzylamino)-3-hydroxy-2-methylpropanoic acid], where the note is “value given as range class”, the IC50 was 0.6 to 10 nM.
Still for that read-out and setting: then `Cc1c(COc2ccc(CNC[C@@H](O)CC(=O)O)c(OCc3cccc(C#N)c3)c2Cl)cccc1-c1ccccc1` [Example 1232, (S)-4-((3-chloro-2-((3-cyanobenzyl)oxy)-4-((2-methyl-[1,1′-biphenyl]-3-yl)methoxy)benzyl)amino)-3-hydroxybutanoic acid], with 100 to 20000 nM; and `Cc1c(COc2cc(OCc3cccc(C#N)c3)c(CN3CCCC3C(=O)O)cc2Cl)cccc1-c1ccc2c(c1)OCCO2` (centres unmarked) [Example 1165, 1-(5-chloro-2-((3-cyanobenzyl)oxy)-4-((3-(2,3-dihydrobenzo[b][1,4]dioxin-6-yl)-2-methylbenzyl)oxy)benzyl)pyrrolidine-2-carboxylic acid], with 0.6 to 10 nM; and `Cc1cc(OCc2cccc(-c3ccc4c(c3)OCCO4)c2C)cc(OCc2cncc(C#N)c2)c1CN[C@@](C)(CO)C(=O)O` [Example 1010, (S)-2-(2-((5-cyanopyridin-3-yl)methoxy)-4-(3-(2,3-dihydrobenzo[b][1,4]dioxin-6-yl)-2-methylbenzyloxy)-6-methylbenzylamino)-3-hydroxy-2-methylpropanoic acid], with 0.6 to 10 nM.
For `Cc1cc(CN[C@](C)(CO)C(=O)O)c(OCc2cncc(C#N)c2)cc1OCc1cccc(-c2ccc3c(c2)OCCO3)c1C` [Example 1287, (R)-2-(2-((5-cyanopyridin-3-yl)methoxy)-4-(3-(2,3-dihydrobenzo[b][1,4]dioxin-6-yl)-2-methylbenzyloxy)-5-methylbenzylamino)-3-hydroxy-2-methylpropanoic acid], where the note is “value given as range class”, the IC50 is 0.6 to 10 nM.

What is called IC50 is the concentration needed to halve the response being measured.
